Patent publication US20230143604A1, “QW DOSING OF GIP RECEPTOR AGONIST PEPTIDE COMPOUNDS AND USES THEREOF” (TAKEDA PHARMACEUTICAL COMPANY LIMITED, priority 2020, published 2023)

Assays:
[1] = biological target: T1, human GLP-1R (Homo sapiens, UniProt P43220); assay: Human GLP1R agonist activity, intracellular cAMP accumulation; format: cell-based; conditions: HEK-293T cells overexpressing human GLP-1R, 1 hr, read-out: Human GLP1R cAMP EC50, HEK293T
T1 construct: HEK-293T cells overexpressing full-length human GLP-1R; FLAG (N); host or cells: HEK-293T
T1 sequence (P43220 24-463): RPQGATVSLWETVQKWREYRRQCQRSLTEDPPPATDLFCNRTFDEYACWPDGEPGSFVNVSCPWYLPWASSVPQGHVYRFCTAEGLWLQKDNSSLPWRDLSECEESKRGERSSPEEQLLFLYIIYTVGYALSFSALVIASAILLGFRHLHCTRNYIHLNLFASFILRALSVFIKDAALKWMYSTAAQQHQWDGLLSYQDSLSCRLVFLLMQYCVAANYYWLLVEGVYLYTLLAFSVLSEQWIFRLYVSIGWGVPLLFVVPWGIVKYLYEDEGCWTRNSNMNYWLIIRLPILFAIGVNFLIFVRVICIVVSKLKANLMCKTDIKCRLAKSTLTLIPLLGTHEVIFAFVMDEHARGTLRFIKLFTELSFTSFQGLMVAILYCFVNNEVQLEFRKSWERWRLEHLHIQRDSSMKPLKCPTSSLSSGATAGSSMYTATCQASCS
Procedure, shortened: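 Frozen assay-ready cells washed and resuspended at 4×10^5 cells/mL in Krebs Ringer buffer, then incubated with compound 1 hr at room temperature in the dark. cAMP read by HTRF (anti-cAMP antibody, d2-cAMP tracer). Normalised to 1 nm GLP-1 (100%) and DMSO (0%).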

[2] = tested on: female beagle dogs; assay: PYY-1119-induced vomiting in dogs; format: in vivo; conditions: 3 nmol/kg s.c., 72 hours post-dose (lower line)
Description: The GIPR agonist peptide compounds of the present disclosure or vehicle (0.09% [w/v] Tween 80/10% DMSO/PBS) were administered subcutaneously (sc) at 3-10 nmol/kg to female beagle dogs (10 months old), followed by sc injections with Y2R agonist ((4-imidazolecarbonyl-Ser-D-Hyp-Iva-Pya(4)-Cha-Leu(Me)-Asn-Lys-Aib-Thr-Arg-Gln-Arg-Cha-NH2), […]), […]) at 1 hour or specified hours in the table postdose. Emetic episodes were counted for 2 hours after administration (by blinded analysis).

[3] = tested on: male ferrets; format: in vivo
Description: 1. Effect of subcutaneously administered GIP receptor agonist peptide in morphine-induced acute emetic model.
To evaluate the antiemetic effect, the GIP receptor agonist peptides other than natural human GIP are subcutaneously administered into male ferrets 24 hrs before morphine administration. Up to 60 minutes after morphine administration, the condition of the ferrets is monitored to record the frequencies and time points of abdominal contraction motions, vomiting behaviors, licking with the tongue, and fidgety behavior occurring. GIP receptor agonist peptide compounds of the present disclosure dosed at 0.3-10 nmol/kg attenuated the morphine (0.6 mg/kg, s.c.)-induced emesis in the ferrets.
GIP receptor agonist peptides are dissolved with a vehicle (0.09 w/v % tween 80/10% DMSO/saline), respectively, to prepare test solutions. […] of the test solutions and the vehicle are subcutaneously administered to ferrets (4 in each group), respectively. At the time of each of 4 or 24 hours after administration, 0.6 mg/kg of morphine is subcutaneously administered.

[4] = Human plasma protein binding (PPB); format: in vitro ADME; conditions: human, plasma
Procedure, shortened: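 Peptides spiked at 1000 nmol/L into pooled human K2-EDTA plasma adjusted to pH 7.4, incubated 30 min at 37 °C, then ultracentrifuged at ~450,000 g, 4 °C for 3 h. Fu derived from LC-MS/MS (MRM) peak area ratios, supernatant versus plasma.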

[5] = Dog plasma protein binding (PPB); format: in vitro ADME; conditions: dog, serum, pH 7.4
Procedure, shortened: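 Dog serum replaced human serum, with the protocol and analysis otherwise the same as for human plasma protein binding. Values are reported as fraction unbound (Fu,plasma) expressed as a percentage.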

[6] = Pharmacokinetics in dog after IV and SC dosing; conditions: in vivo, 3 nmol/kg
Procedure, shortened: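 Dogs were dosed IV or SC at 1 mL/kg with peptide at 3 nmol/mL in 10% DMSO/0.09% Polysorbate/PBS pH 7.4. K2-EDTA plasma was sampled to 336 h, and peptide was quantified by LCMS to derive half-life.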

CC[C@H](C)[C@H](NC(=O)[C@H](CO)NC(=O)[C@H](Cc1ccc(O)cc1)NC(=O)[C@H](CC(=O)O)NC(=O)[C@H](CO)NC(=O)[C@@H](NC(=O)[C@H](Cc1ccccc1)NC(=O)[C@@H](NC(=O)CNC(=O)[C@H](CCC(=O)O)NC(=O)C(C)(C)NC(=O)[C@H](Cc1ccc(O)cc1)NC)[C@@H](C)O)[C@@H](C)CC)C(=O)N[C@@H](C)C(=O)N[C@@H](CC(C)C)C(=O)N[C@@H](CC(=O)O)C(=O)N[C@@H](CCCNC(=N)N)C(=O)N[C@@H](CCCCNC(=O)CNC(=O)CNC(=O)CNC(=O)CNC(=O)CNC(=O)CCCCCCCCCCCCCCCCC(=O)O)C(=O)N[C@@H](C)C(=O)N[C@@H](CCC(N)=O)C(=O)NC(C)(C)C(=O)N[C@@H](CC(=O)O)C(=O)N[C@@H](Cc1ccccc1)C(=O)N[C@H](C(=O)N[C@@H](CC(N)=O)C(=O)N[C@@H](Cc1c[nH]c2ccccc12)C(=O)N[C@@H](CC(C)C)C(=O)N[C@@H](CC(C)C)C(=O)N[C@@H](C)C(=O)N[C@@H](CCC(N)=O)C(=O)N[C@@H](CO)C(=O)N1CCC[C@H]1C(=O)N[C@@H](CO)C(=O)N[C@@H](CO)C(=O)NCC(=O)N[C@@H](C)C(=O)N1CCC[C@H]1C(=O)N1CCC[C@H]1C(=O)N1CCC[C@H]1C(=O)N[C@@H](CO)C(N)=O)C(C)C [Compound 50, Me-Y-Aib-E-G-T-F-I-S-D-Y-S-I-A-L-D-R-Km-A-Q-Aib-D-F-V-N-W-L-L-A-Q-S-P-S-S-G-A-P-P-P-S-NH2]
EC50 [1]: 20.4 nM | Inhibition (%) of PYY-1119-induced emetic event [2]: 97% (3 nmol/kg) | % inhibition of emetic events at doses (nmol/kg) and timepoints shown in ferret morphine model ([3]; 4 hrs, 0.3 nmol/kg s.c.): 4 hrs: 27% (0.3 nmol/kg); | effect on morphine-induced emesis in ferrets (in words) ([3]; morphine 0.6 mg/kg s.c., peptides dosed at 0.3-10 nmol/kg s.c.): effective in completely inhibiting the frequency of emesis | free unbound peptide in human plasma (in words) [4]: optimum free unbound peptide | fraction unbound at 30 min, 1000 nmol/L [5]: 0.0006 | half-life ([6]; iv): 74 h | MRT last ([6]; sc): 103 h
